ChEMBL document CHEMBL1201862, “PubChem BioAssay data set” (2004)
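Step 1: Grow cells in 96-well plates. Step 2: Expose to compound for 48 hours at 5 concentrations. Step 3: Interpolate endpoints linearly; if unreached, use highest concentration. GI50 is the concentration that inhibits growth by half.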 Activity calls are given as the source filed them. Cut-off read from the data, not from the text of the source: active = GI50 up to about 1.1 µM and inactive = higher.

What was measured:
Assay in all cases: NCI tumour cell line growth inhibition, 48 h
HOP-62 = tested on: HOP-62
NCI-H23 = tested on: NCI-H23
OVCAR-8 = tested on: OVCAR-8
SK-MEL-2 = tested on: SK-MEL-2
SK-MEL-28 = tested on: SK-MEL-28
SW-620 = tested on: SW-620
KM12 = tested on: KM12
RPMI-8226 = tested on: RPMI-8226
NCI-H460 = tested on: NCI-H460
SN12C = tested on: SN12C
ACHN = tested on: ACHN
SNB-75 = tested on: SNB-75
TK-10 = tested on: TK-10
UO-31 = tested on: UO-31
OVCAR-5 = tested on: OVCAR-5
CCRF-CEM = tested on: CCRF-CEM
RXF 393 = tested on: RXF 393
MOLT-4 = tested on: MOLT-4
Malme-3M = tested on: Malme-3M
UACC-62 = tested on: UACC-62

Measured: GI50

CC(C)C(NC(=O)C(Cc1ccccc1)NC(=O)[C@H]1CCC[C@H]1NC(=O)C(N)Cc1ccc(O)cc1)C(N)=O (stereo not given in full)
inactive: HOP-62 > 100 µM | NCI-H23 > 100 µM | OVCAR-8 > 100 µM | SK-MEL-2 > 100 µM | SK-MEL-28 > 100 µM | SW-620 > 100 µM | KM12 > 100 µM | RPMI-8226 > 100 µM | NCI-H460 > 100 µM | SN12C > 100 µM | ACHN > 100 µM | SNB-75 > 100 µM | TK-10 > 100 µM | UO-31 > 100 µM | OVCAR-5 > 100 µM | CCRF-CEM > 100 µM | RXF 393 > 100 µM | MOLT-4 > 100 µM | Malme-3M > 100 µM | UACC-62 > 100 µM

COc1ccc2nc(N/N=C/c3sccc3C)cc(C)c2c1
inactive: HOP-62 16.4 µM | NCI-H23 10.1 µM | OVCAR-8 37.8 µM | SK-MEL-2 21.6 µM | SK-MEL-28 18.1 µM | SW-620 20.8 µM | KM12 22.5 µM | RPMI-8226 9.38 µM | NCI-H460 13.2 µM | SN12C 19.4 µM | ACHN 16.3 µM | SNB-75 15 µM | TK-10 12 µM | UO-31 15.1 µM | OVCAR-5 23.2 µM | CCRF-CEM 19.5 µM | RXF 393 19.1 µM | MOLT-4 18.7 µM | Malme-3M 17.5 µM | UACC-62 13.1 µM

Cn1cc(NC(=O)c2cc(NC(=O)c3cc(NC=O)cn3C)cn2C)cc1C(=O)NCCC(=N)N [STALLIMYCIN]
inactive: HOP-62 > 100 µM | NCI-H23 > 100 µM | OVCAR-8 > 100 µM | SK-MEL-2 > 100 µM | SK-MEL-28 > 100 µM | SW-620 > 100 µM | KM12 > 100 µM | RPMI-8226 > 100 µM | NCI-H460 > 100 µM | SN12C > 100 µM | ACHN > 100 µM | SNB-75 22.8 µM | TK-10 > 100 µM | UO-31 > 100 µM | OVCAR-5 > 100 µM | CCRF-CEM > 100 µM | RXF 393 > 100 µM | MOLT-4 > 100 µM | Malme-3M 25.5 µM | UACC-62 61.4 µM
